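Tested at 5 concentrations; 48 h exposure; 96-well plates; endpoints linearly interpolated, else capped at highest concentration. Abbreviation: GI50, concentration required for 50% inhibition of growth.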 The source made the active and inactive calls. Rule as the data show it: active = GI50 up to about 1.1 µM and inactive = higher.
How the values were obtained:
Test in all cases: inhibition of tumour cell growth, NCI panel, 48 h
NCI-H226 = tested on: NCI-H226
NCI/ADR-RES = tested on: NCI/ADR-RES
OVCAR-8 = tested on: OVCAR-8
PC-3 = tested on: PC-3
ACHN = tested on: ACHN
SNB-19 = tested on: SNB-19
HL-60 = tested on: HL-60
NCI-H460 = tested on: NCI-H460
A498 = tested on: A498
EKVX = tested on: EKVX
Malme-3M = tested on: Malme-3M
OVCAR-3 = tested on: OVCAR-3
HOP-92 = tested on: HOP-92
SK-MEL-28 = tested on: SK-MEL-28
MDA-MB-231 = tested on: MDA-MB-231
HCT-15 = tested on: HCT-15
U-251 = tested on: U-251
HT-29 = tested on: HT-29
OVCAR-5 = tested on: OVCAR-5
UACC-62 = tested on: UACC-62
CCRF-CEM = tested on: CCRF-CEM
COLO 205 = tested on: COLO 205
BT-549 = tested on: BT-549
MDA-N = tested on: MDA-N
A549 = tested on: A549
RPMI-8226 = tested on: RPMI-8226
OVCAR-4 = tested on: OVCAR-4
HCT-116 = tested on: HCT-116
NCI-H23 = tested on: NCI-H23
SK-MEL-5 = tested on: SK-MEL-5
MCF7 = tested on: MCF7
DU-145 = tested on: DU-145
K562 = tested on: K562
M14 = tested on: M14
SF-268 = tested on: SF-268
SK-OV-3 = tested on: SK-OV-3
T47D = tested on: T47D
MOLT-4 = tested on: MOLT-4
SF-295 = tested on: SF-295
SN12C = tested on: SN12C
UACC-257 = tested on: UACC-257
HOP-62 = tested on: HOP-62
TK-10 = tested on: TK-10
786-0 = tested on: 786-0
LOX IMVI = tested on: LOX IMVI
MDA-MB-435 = tested on: MDA-MB-435
SR = tested on: SR
UO-31 = tested on: UO-31
IGROV-1 = tested on: IGROV-1
HCC 2998 = tested on: HCC 2998
SNB-75 = tested on: SNB-75
SW-620 = tested on: SW-620

Measured: GI50

CN(C)/C=N/[C@@H](C(=O)O)c1ccccc1
> 100 µM: HCT-15
inactive: NCI-H226 > 100 µM | NCI/ADR-RES > 100 µM | OVCAR-8 > 100 µM | PC-3 > 100 µM | ACHN > 100 µM | SNB-19 > 100 µM | HL-60 > 100 µM | NCI-H460 > 100 µM | A498 > 100 µM | EKVX > 100 µM | Malme-3M > 100 µM | OVCAR-3 > 100 µM | HOP-92 > 100 µM | SK-MEL-28 > 100 µM | MDA-MB-231 > 100 µM | U-251 > 100 µM | HT-29 > 100 µM | OVCAR-5 > 100 µM | UACC-62 > 100 µM | CCRF-CEM > 100 µM | COLO 205 > 100 µM | BT-549 > 100 µM | MDA-N > 100 µM | A549 > 100 µM | RPMI-8226 > 100 µM | OVCAR-4 > 100 µM | HCT-116 > 100 µM | NCI-H23 > 100 µM | SK-MEL-5 > 100 µM | MCF7 > 100 µM | DU-145 > 100 µM | K562 > 100 µM | M14 > 100 µM | SF-268 > 100 µM | SK-OV-3 > 100 µM | T47D > 100 µM | MOLT-4 > 100 µM | SF-295 > 100 µM | SN12C > 100 µM | UACC-257 > 100 µM | HOP-62 > 100 µM | TK-10 > 100 µM | 786-0 > 100 µM | LOX IMVI > 100 µM | MDA-MB-435 > 100 µM | SR > 100 µM | UO-31 > 100 µM | IGROV-1 > 100 µM | HCC 2998 > 100 µM | SNB-75 > 100 µM | SW-620 > 100 µM

Reference: ChEMBL document CHEMBL1201862, “PubChem BioAssay data set” (2004)
